The numbers were not newly measured in patent US20090246278A1, “USE OF ESSENTIAL OILS TO REDUCE BENZODIAZEPINE REQUIREMENTS DURING MEDICAL PROCEDURES” (priority 2008, published 2009), which cites them from elsewhere.

In the data set the test system is GABA receptors. The settings on record: effects antagonized by flumazenil.

`C=C1CCC2CC1C2(C)C` (stereo not drawn) [β-pinene, beta-pinene]: the GABA-ergic properties result is given as “exert GABA-ergic properties”.
Turning to `CC1=CCC2CC1C2(C)C` (stereo not drawn) [α-pinene, alpha-pinene], the GABA-ergic properties result is “exert GABA-ergic properties”.
